Source: patent publication US20110123530A1, “COMPOSITIONS AND METHODS FOR TREATING AND DIAGNOSING ASTHMA” (priority 2008, published 2011)

Experiments:
[1] = tested on: subjects with asthma; assay: Randomized controlled trial of inhaled fluticasone or placebo: FEV1 by spirometry; type: in vivo, human; conditions: for Improvement in FEV1 as compared to subjects treated with placebo: inhaled fluticasone, 4 and 8 weeks; for ΔFEV1 with fluticasone at 4 weeks / ΔFEV1 with fluticasone 8 weeks: asthma, inhaled fluticasone 500 μg twice daily, mean ± SD
Procedure: “Forced expiratory volume (FEV1)” refers to a standard test that measures the volume of air expelled in the first second of a forced expiration. […] To perform spirometry, a person inhales deeply, closes the mouth tightly around the tube and then exhales through the tubing while measurements are taken. The volume of air exhaled, and the length of time each breath takes is recorded and analyzed. Spirometry results are expressed as a percentage. Examples of normal spirometry results include a FEV1 of 75 percent of vital capacity after one second. An example of abnormal spirometry results include a reading of less than 80 percent of the normal predicted value. An abnormal result usually indicates the presence of some degree of obstructive lung disease such as asthma, emphysema or chronic bronchitis, or restrictive lung disease such as pulmonary fibrosis. For example, FEV1 values (percentage of predicted) can be used to classify the obstruction that may occur with asthma and other obstructive lung diseases like emphysema or chronic bronchitis: FEV1 […] to 79 percent predicted=mild obstruction, FEV1 40 percent to 59 percent predicted=moderate obstruction, and FEV1 less than 40 percent predicted=severe obstruction. Thirty-two of the subjects with asthma had also been enrolled in a double-blind randomized controlled clinical trial of inhaled fluticasone (500 μg, twice daily, N=19) or matched placebo (N=13) (ClinicalTrials.gov Identifier: NCT00187499). The trial was designed to determine the effects of inhaled steroid (fluticasone) on airway gene expression and to relate gene expression changes to improvements in lung function. The asthma subjects in the clinical trial had undergone baseline bronchoscopy and had been randomized to receive study medication before undergoing repeat bronchoscopy one week later after starting study drug. Asthma subjects continued study medication for a total of 8 weeks. Healthy control subjects and smokers were enrolled in one of three cross-sectional studies, which comprised two visits each, the first for characterization and the second for bronchoscopy 1 week later. Thirty-five subjects had adequate baseline bronchoscopy, and 32 had RNA available from epithelial brushings at both bronchoscopies. Lung function was measured (by spirometry) after 4 weeks and 8 weeks on study medication, and a final spirometry was completed after a one week run-out. Methods for bronchoscopy, epithelial brushing, bronchoalveaolar lavage, spirometry, and sample handling were identical across all studies. Bronchoalveolar lavage (BAL) was performed by instilling 4 aliquots of 50 ml of sterile saline into either the lingula or right middle lobe, with recovery by suction. Cell counts were performed using a hemocytometer and Turks solution (1% glacial acetic acid and 0.01% gentian violet in distilled H2O). Then BAL cell differentials were performed on cytocentrifuged preparations using the Shandon Kwik-Diff stain kit (Thermo Fisher Scientific, Waltham Mass.). Thirty-two of the subjects with asthma were also enrolled in a double-blind randomized controlled clinical trial of inhaled fluticasone (500 mcg BID) or matched placebo. In addition to the inclusion criteria above, these subjects were also required to have either asthma symptoms on 2 or more days per week, or β-agonist use on 2 or more days per week, or FEV1<85% predicted. Subjects in the clinical trial underwent a baseline visit and baseline bronchoscopy as described above, were randomized to receive study medication and underwent repeat bronchoscopy one week later. Then, they continued study medication for a total of 8 weeks with scheduled re-assessment of spirometry and methacholine challenge testing. […]

[2] = tested on: IL-4/13 signature genes in bronchial airway epithelium; assay: Microarray analysis of bronchial epithelial brushings at baseline and after one week of ICS treatment; type: in vivo, human
Description: (A) Periostin expression; (B) PRR4 expression; (C) RUNX2 expression.
We studied biological samples stored in the Airway Tissue Bank at the University of California, San Francisco (UCSF) that had been collected during bronchoscopy performed for research purposes in healthy and asthmatic volunteers. Research bronchoscopy had included collection of epithelial brushings, bronchoalveolar lavage (BAL) and bronchial biopsies using specific methods previously described. BAL cell counts and differentials had been performed and databased, and macrophages had been sorted from BAL fluid using flow cytometry. Four to six bronchial biopsies had been obtained from 2nd-through 5th-order carinae (contralateral to the brushing site), formalin-fixed, and then paraffin-embedded in isotropic uniform random orientation to enable quantitative measures of inflammation and remodeling using methods of design-based stereology. An additional 2 bronchial biopsies had been homogenized and processed for RNA using the Qiagen RNeasy minikit (Qiagen Inc., Valencia, Calif.). RNA extracted from epithelial brushings, homogenates of bronchial biopsies, and lavage macrophages had been quality assured and aliquoted for future microrray- and PCR-based gene profiling. All research bronchoscopy studies had been approved by the UCSF Committee on Human Research (CHR), written informed consent had been obtained from all subjects, and all studies had been performed in accordance with the principles expressed in the Declaration of Helsinki The Airway Tissue Bank procedures were also reviewed and approved by UCSF's CHR. Samples of epithelial brushings and macrophages from this tissue bank have been used in previously reported studies. Most recently, microarray analyses of differentially expressed genes in epithelial brushings in asthmatic subjects have been reported by us.
Thirty-two of the subjects with asthma had also been enrolled in a double-blind randomized controlled clinical trial of inhaled fluticasone (500 μg, twice daily, N=19) or matched placebo (N=13) (ClinicalTrials.gov Identifier: NCT00187499). The trial was designed to determine the effects of inhaled steroid (fluticasone) on airway gene expression and to relate gene expression changes to improvements in lung function. The asthma subjects in the clinical trial had undergone baseline bronchoscopy and had been randomized to receive study medication before undergoing repeat bronchoscopy one week later after starting study drug. Asthma subjects continued study medication for a total of 8 weeks. Healthy control subjects and smokers were enrolled in one of three cross-sectional studies, which comprised two visits each, the first for characterization and the second for bronchoscopy 1 week later. Thirty-five subjects had adequate baseline bronchoscopy, and 32 had RNA available from epithelial brushings at both bronchoscopies. Lung function was measured (by spirometry) after 4 weeks and 8 weeks on study medication, and a final spirometry was completed after a one week run-out. […]
Microarray data from mild-moderate non-smoking asthma patients and healthy non-smoking subjects were obtained from a previous study as described. […] Microarray data was analysed in the present study to determine whether genes were differentially regulated within the asthmatic group. Also, the microarray data was analyzed to determine whether other genes were co-regulated with top asthma-related, IL-13 induced genes. […]

[3] = 19 subjects, one week of ICS treatment, vast majority of genes
[4] = individual subjects after one week of ICS treatment

## CCC(=O)O[C@]1(C(=O)SCF)[C@H](C)C[C@H]2[C@@H]3C[C@H](F)C4=CC(=O)C=C[C@]4(C)[C@@]3(F)[C@@H](O)C[C@@]21C [fluticasone, fluticasone propionate]
[1]; IL-13 high asthma subphenotype
  Improvement in FEV1 as compared to subjects treated with placebo: significant improvements in FEV1
[1]; IL-13 high group, week 9
  Improvements in FEV1 after a one week run out period off drug: lost
[1]; IL-13 low asthma subphenotype
  Improvement in FEV1 as compared to subjects treated with placebo: did not
[1]; IL13 Signature Low
  ΔFEV1 with fluticasone at 4 weeks: 0.03 ± 0.12 L
  ΔFEV1 with fluticasone 8 weeks: 0.04 ± 0.12 L
[1]; IL-13 Signature High
  ΔFEV1 with fluticasone at 4 weeks: 0.35 ± 0.2 L
  ΔFEV1 with fluticasone 8 weeks: 0.25 ± 0.23 L
[2]; [3]
  Expression of IL-4/13 signature genes (Table 2) in asthmatic bronchial airway epithelium: significantly downregulated
  Expression of IL-13 signature genes (Table 9) in asthmatic bronchial airway epithelium: significantly downregulated
[2]; [4]
  PRR4 expression in bronchial epithelial brushings: not substantially downregulated
  RUNX2 expression in bronchial epithelial brushings: not substantially downregulated
[2]; subjects with IL-13 high asthma at baseline, after one week of fluticasone treatment
  Hierarchical clustering by periostin, CLCA1 and serpinB2 expression in bronchial epithelium: clustered with subjects who were IL-13 low at baseline
